Positions of bridges follow the written chain, without caps; N, C: chain ends. Non-standard residues stand in square brackets, D forms with d. Residues, ends and D or L forms follow the SMILES beside them. S5 = C=CCCC[C@](C)(N)C(=O)O
Key:
[1] = Proteolytic stability in α-chymotrypsin solution; format: in vitro ADME; details: α-chymotrypsin solution, pH 7.4; after 1 h exposure to α-chymotrypsin; read-out: peptide remaining intact
Method: (§1) The peptides were dissolved in H2O to a final concentration at 2 mM, respectively. α-Chymotrypsin was dissolved in PBS (0.5 ng/μL, containing 2 mM CaCl2, pH 7.4). Then, the peptide solutions (50 μL) were incubated with α-chymotrypsin solution (950 μL) at 37 ℃. 100 μL of digestion mixture was taken at the different time and then quenched with 20 μL of hydrochloric acid (1 M). The percent residual peptide was monitored by HPLC at 214 nm. Each experiment was performed in triplicate.

[2] = molecular target: α-Chymotrypsin (Bos taurus, UniProt P00766); assay: Proteolytic stability in α-chymotrypsin solution; format: in vitro ADME
Method: as §1

[3] = system: red blood cells (RBC); assay: Hemolysis assay (hemoglobin release from erythrocytes); format: cell-based, mice
Method: The hemolytic activities of the peptides and peptide-polymer conjugates were evaluated by determining hemoglobin release from suspensions of mice blood. Fresh erythrocytes were obtained from the whole blood by centrifuging at 4 ℃ 1000 g for 30 min and washing with PBS 2 times. Then erythrocytes were diluted with PBS at the volume ration of 1:10. The 96-well plate was added to 100 μL erythrocyte suspension per well and incubated with peptides and conjugates solution with different concentrations for 1 h at 37 ℃, following centrifuged at 1000 rpm for 10 min. The supernatants were obtained and monitored by measuring absorbance at 570 nm (BioTek Cytation 5, USA) as previously described. 0.1% (v/v) Triton X-100 was used as a positive control and PBS was used as a negative control.

Q: Which results are given for `CC[C@H](C)[C@H](NC(C)=O)C(=O)N[C@@H](CC(N)=O)C(=O)N[C@@H](CC(C)C)C(=O)N[C@@H](CCCCN)C(=O)N[C@@H](C)C(=O)N[C@@H](CC(C)C)C(=O)N[C@@H](C)C(=O)N[C@@H](C)C(=O)N[C@@]1(C)CCCC=CCCC[C@@](C)(C(=O)N[C@@H](CC(C)C)C(N)=O)NC(=O)[C@H](CCCCN)NC(=O)[C@H](CCCCN)NC(=O)[C@H](C)NC1=O` [MP9] (Ac-INLKALAA[S5]AKK[S5]L-NH2; staple 9-13)?
A: remaining at 1 h, 0.1 mM [1]: > 87%; half-life ([2]; 0.5 ng/μL α-chymotrypsin, pH 7.4, 37 ℃, read-out: T1/2 in α-chymotrypsin solution (converted)): 5.27 h; fold increase in half-life (T1/2) versus MP ([2]; α-chymotrypsin): 12.55 fold; RBC hemolytic activity (in words) [3]: lowest level of RBC hemolysis
